# PubChem BioAssay (NCI)
# Where “and” joins values, the source holds several entries; their conditions need not be identical. Equal values may be shown once.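 A five-concentration, 48-hour dose response in 96-well plates underlies each endpoint, interpolated linearly between surrounding concentrations. Abbreviation: GI50, concentration required for 50% inhibition of growth. TGI is the concentration that stops growth completely.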
# What was measured:
# Assay in all cases: inhibition of tumour cell growth, NCI panel, 48 h
# NCI-H23 lung = tested on: NCI-H23 lung
# DMS 114 small cell lung = tested on: DMS 114 small cell lung
# 786-0 renal = tested on: 786-0 renal
# KM20L2 colon = tested on: KM20L2 colon
# SK-MEL-2 melanoma = tested on: SK-MEL-2 melanoma
# SF-295 CNS = tested on: SF-295 CNS
# HOP-62 NSCLC = tested on: HOP-62 NSCLC
# A498 renal = tested on: A498 renal
# MDA-MB-435 = tested on: MDA-MB-435
# PC-3 prostate = tested on: PC-3 prostate
SMILES,TGI (NCI-H23 lung),TGI (DMS 114 small cell lung),TGI (786-0 renal),TGI (KM20L2 colon),TGI (SK-MEL-2 melanoma),TGI (SF-295 CNS),TGI (HOP-62 NSCLC),TGI (A498 renal),GI50 (NCI-H23 lung),GI50 (MDA-MB-435),TGI (MDA-MB-435),GI50 (DMS 114 small cell lung),GI50 (786-0 renal),GI50 (PC-3 prostate),TGI (PC-3 prostate),GI50 (KM20L2 colon),GI50 (SK-MEL-2 melanoma),GI50 (SF-295 CNS),GI50 (HOP-62 NSCLC),GI50 (A498 renal)
BrC1=CC=C2NCCCCCCN=C3C=CC(Br)=CC=C3NCCCCCCN=C2C=C1,> 25.5 µM,> 25.5 µM,> 25.5 µM,> 25.5 µM,> 25.5 µM,> 25.5 µM,> 25.5 µM,> 25.5 µM,–,–,–,–,–,–,–,–,–,–,–,–
O=C1C(=O)c2ccccc2C(O)=C1CC=C(Cl)Cl,51.3 µM and 154 µM and 99.1 µM,51.7 µM and 70.5 µM,> 68.9 µM and 250 µM and > 100 µM,200 µM,44.3 µM and 47.1 µM and 63.9 µM,75.5 µM and 137 µM,64.1 µM and 61 µM and > 100 µM,57.8 µM and 96.2 µM and 51 µM,11.6 µM and 12.7 µM,5.7 µM and 7.43 µM,29.2 µM and 109 µM and 80.6 µM,14.5 µM,4.63 µM and 13.4 µM,4.7 µM and 2.85 µM,> 48.8 µM and 134 µM and 72.9 µM,7.04 µM,22.1 µM,9.87 µM and 7.86 µM,9.44 µM and 14 µM,15.1 µM and 13.9 µM
CN1CCN(CCNc2ccc(CO)c3sc4ccccc4c(=O)c23)CC1,17.6 µM,22.9 µM,17.5 µM,17.7 µM,20.9 µM,17.5 µM,18.6 µM,8.2 µM,–,1.98 µM,4.51 µM,–,–,3.5 µM,14.5 µM,–,–,–,–,2.51 µM
Cn1c2ccccc2c(=O)c2c([N+](=O)[O-])ccc(NCCN)c21,23.6 µM,26.4 µM,20.6 µM,24.1 µM,36 µM,25 µM,30.7 µM,31 µM,–,–,–,–,–,–,–,–,–,–,–,–
COc1ccc(C(=O)C(C(=O)C(=O)Nc2nccs2)c2ccc(OC)cc2)cc1 (centres undefined),> 100 µM,> 100 µM,> 100 µM,> 100 µM,> 100 µM,–,–,> 100 µM,–,–,–,–,–,–,–,–,–,–,–,–
CCCCCC(O)(CCCCC)CCCCCCCCC1=C(O)c2[nH]c(=O)ccc2C(=O)C1=O,7.73 µM,16.5 µM,20.8 µM,27.9 µM,13.9 µM,16.4 µM,24.9 µM,24.6 µM,–,–,–,–,–,–,–,–,–,–,–,–
COc1cc2c([C@@H](OC(=O)c3ccccc3)c3ccc4c(c3)OCO4)nccc2c(OC)c1OC,> 100 µM,84.1 µM,> 100 µM,> 100 µM,–,> 100 µM,> 100 µM,> 100 µM,–,–,–,–,–,–,–,–,–,–,–,–
O=C(O)/C(=C\c1ccccc1Cl)S(=O)(=O)c1ccccc1,–,> 100 µM,> 100 µM,> 100 µM,> 100 µM,> 100 µM,> 100 µM,> 100 µM,–,–,–,–,–,–,–,–,–,–,–,–
COC(=O)/C(=C/c1ccc(OC)cc1)NC(=O)c1ccccc1,> 100 µM,> 100 µM,> 100 µM,> 100 µM,> 100 µM,> 100 µM,–,> 100 µM,–,–,–,–,–,–,–,–,–,–,–,–
